Reference: patent US7084172B2, “Bioprecursors for percutaneous application” (Pierre Fabre Dermo-Cosmetique, priority 2001, dated 2006)

Tested on: HaCaT keratinocyte line
Test: Enzymatic hydrolysis by esterase activity in HaCaT keratinocytes
Type: in vitro ADME, human
Description: 150 μl of a 1 mM solution in dimethyl sulphoxide (DMSO) are placed in a dish containing an HaCaT keratinocyte line (75 cm^2) in 15 ml of serum alone. The cells are placed in the incubator at 37° C. for 24 hours. The medium is extracted with 15 ml of ethyl acetate. The organic phase is then isolated and evaporated off.
The cells are extracted by sonication into 2×15 ml of an ice-cold mixture consisting of chloroform and methanol (1:2.5). After centrifugation, the organic phase collected is evaporated to dryness. For each test, a control is performed on a dish containing cells and a substrate-free medium to take account of a possible chemical degradation of the substrate.
The presence of esterase activity in the human keratinocytes is checked by means of a substrate, 4-methylumbelliferyl palmitate. The precursor according to the invention, used as pseudosubstrate, is the tocopheryl retinyl succinate prepared according to example 1.

Degree of hydrolysis in 24 hours of incubation (150 μl of 1 mM DMSO solution in 15 ml serum, HaCaT keratinocytes, 37° C., 24 hours) | Degree of hydrolysis in 24 hours of incubation (human, 24 h, 10 µM) | Structure (SMILES)
2.7% ± 2% | – | CCCCCCCCCCCCCCCC(=O)Oc1ccc2c(C)cc(=O)oc2c1 [4-Methylumbelliferyl palmitate, 4-methylumbelliferyl palmitate]
– | 5% ± 3% | CC1=C(/C=C/C(C)=C/C=C/C(C)=C/COC(=O)CCC(=O)Oc2c(C)c(C)c3c(c2C)CCC(C)(CCCC(C)CCCC(C)CC(C)C)O3)C(C)(C)CCC1 (centres unmarked) [Tocopheryl retinyl succinate, O-(4-Oxo-4-{[2,5,7,8-tetramethyl-2-(4,8,12-trimethyltridecyl)-3,4-dihydro-2H-chromen-6-yl]oxy}butanoyl)retinol]
